# According to patent US20240254138A1, “TRICYCLIC PYRIMIDINES AS CYCLIN-DEPENDENT KINASE 7 (CDK7) INHIBITORS” (JANSSEN PHARMACEUTICA NV, priority 2021, published 2024):
# Read-outs that look alike come from different tables or passages of the source.
# Columns and labels:
# [1] = system: RNA Polymerase II Serine 5 phosphorylation (Rpb1 CTD, downstream substrate of CDK7) in A549 cells; experiment: Imaging-based cellular RNA PolII Ser5 phosphorylation assay in A549 cells; assay type: cell-based, human; conditions: wild-type CDK7, RNA PolII Ser5 phosphorylation, averaged over all measurements; for IC50: Homo sapiens, A549, A549 cells, read-out: CDK7_A549 Wild-type CDK7 (pIC50) (converted); for CDK7_A549 Wild-type CDK7 (pIC50): A549 cells
# In short: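 A549 cells, seeded 1000/well in DMEM with 1% FBS and cultured 20 h, were treated with compound for 3 h at 37 °C. Ser5-phospho-Rpb1 CTD detected by immunofluorescence imaging after fixation and methanol permeabilization; IC50 from curve fit normalized to DMSO and 10 μM reference-compound controls.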
# [2] = system: RNA Polymerase II Serine 5 phosphorylation in A549 cells overexpressing CDK7-mutant (C312S); experiment: Imaging-based cellular RNA PolII Ser5 phosphorylation assay in A549 cells overexpressing CDK7-mutant (C312S); assay type: cell-based, human; conditions: RNA PolII Ser5 phosphorylation, averaged over all measurements; for IC50: Homo sapiens, A549, A549 cells overexpressing CDK7-mutant (C312S), read-out: CDK7_A549 mutant hCDK7(pIC50) (converted); for CDK7_A549 mutant hCDK7(pIC50): A549 cells overexpressing CDK7-mutant (C312S)
# In short: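 A549 cells overexpressing CDK7 C312S (with endogenous wild-type CDK7) were treated with compound for 3 h at 37 °C in 1% FBS medium. Phospho-Rpb1 CTD Ser5 was immunostained after fixation and imaged. IC50 came from curve fit of % control, normalised to DMSO and 10 μM reference-compound controls.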
# [3] = molecular target: CDK7/cyclinH/MAT1 trimeric complex (Homo sapiens, UniProt P50613); experiment: In vitro CDK7 assay, potency of irreversible covalent inhibitors (kinact/KI), coupled PK/LDH ADP readout at 340 nm; conditions: for Ki: CDK7 (20 nM enz.) (KI, μM); for Ki / CDK7 (20 nM enz.) (kinact, s^−1) / CDK7 (20 nM enz.) (kinact/KI, M^−1*s^−1): 20 nM enzyme; for kinact: read-out: CDK7 (20 nM enz.) (kinact, s^−1), 20 nM enzyme
# [4] = read-out: CDK7 (20 nM enz.) (kobs/[I], M^−1*s^−1), 20 nM enzyme
# [5] = read-out: CDK7 (20 nM enz.) (kinact/KI, M^−1*s^−1), 20 nM enzyme
# CDK7/cyclinH/MAT1 trimeric complex, sequence (P50613 whole entry): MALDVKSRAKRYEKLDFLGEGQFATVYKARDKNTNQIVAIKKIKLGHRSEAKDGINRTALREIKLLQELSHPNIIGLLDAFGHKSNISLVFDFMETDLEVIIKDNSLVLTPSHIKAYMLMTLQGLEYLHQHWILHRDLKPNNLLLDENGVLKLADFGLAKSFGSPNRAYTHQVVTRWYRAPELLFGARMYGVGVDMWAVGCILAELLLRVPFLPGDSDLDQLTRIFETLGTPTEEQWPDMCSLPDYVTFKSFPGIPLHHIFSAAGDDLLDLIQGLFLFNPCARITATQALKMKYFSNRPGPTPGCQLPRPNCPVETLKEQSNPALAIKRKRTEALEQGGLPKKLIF
# CDK7/cyclinH/MAT1 trimeric complex, sequence (P51946 whole entry partner): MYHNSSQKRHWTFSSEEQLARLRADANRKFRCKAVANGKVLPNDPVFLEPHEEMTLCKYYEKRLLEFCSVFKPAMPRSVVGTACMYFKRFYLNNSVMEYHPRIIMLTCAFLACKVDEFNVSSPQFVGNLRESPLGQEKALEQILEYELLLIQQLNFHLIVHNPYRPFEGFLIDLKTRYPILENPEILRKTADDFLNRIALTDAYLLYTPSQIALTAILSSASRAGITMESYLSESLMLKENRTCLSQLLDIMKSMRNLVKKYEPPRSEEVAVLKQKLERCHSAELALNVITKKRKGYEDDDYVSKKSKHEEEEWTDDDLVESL
# CDK7/cyclinH/MAT1 trimeric complex, sequence (P51948 whole entry partner): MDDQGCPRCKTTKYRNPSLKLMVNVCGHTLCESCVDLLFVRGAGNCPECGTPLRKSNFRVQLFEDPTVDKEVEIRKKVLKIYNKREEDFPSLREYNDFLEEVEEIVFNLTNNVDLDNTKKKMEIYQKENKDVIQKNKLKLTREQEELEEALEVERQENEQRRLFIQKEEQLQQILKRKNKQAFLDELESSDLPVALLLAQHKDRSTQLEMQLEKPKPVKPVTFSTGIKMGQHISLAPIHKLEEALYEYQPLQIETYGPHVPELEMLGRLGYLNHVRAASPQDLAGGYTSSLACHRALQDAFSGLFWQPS
Compound,IC50 [1],IC50 [2],"kinact/KI [3, 4]",Ki [3],kinact [3],"kinact/KI [3, 5]",CDK7_A549 Wild-type CDK7 (pIC50) [1],CDK7_A549 mutant hCDK7(pIC50) [2],"CDK7 (20 nM enz.) (kinact, s^−1) [3]","CDK7 (20 nM enz.) (kinact/KI, M^−1*s^−1) [3]"
"COC(=O)/C=C/C(=O)N1CC[C@H](N2CCC(c3cc4c(c(C)n3)OCc3c(-c5cnn(C)c5)ccnc3N4)CC2)C1 (single isomer, unassigned) [Compound 297]",~23.4 nM,> 10000 nM,1240 M⁻¹ s⁻¹,,,,,,,
"CC#CC(=O)N1CC[C@@H](N2CCC(c3cc4c(c(C)n3)OCc3c(-c5cnn(C)c5)ccnc3N4)CC2)C1 (single isomer, unassigned) [Compound 299]",87.1 nM,> 10000 nM,,0.0959 µM,5.9e-05 s⁻¹,615 M⁻¹ s⁻¹,,,,
"COC(=O)/C=C/C(=O)N1CC[C@@H](N2CCC(c3cc4c(c(C)n3)OCc3c(-c5cnn(C)c5)ccnc3N4)CC2)C1 (single isomer, unassigned) [Compound 301]",24 nM,> 10000 nM,2790 M⁻¹ s⁻¹,,,,,,,
"CC#CC(=O)N1CC[C@H](N2CCC(c3cc4c(c(C)n3)OCc3c(-c5cnn(C)c5)ccnc3N4)CC2)C1 (single isomer, unassigned) [Compound 304]",129 nM,> 10000 nM,,0.111 µM,4.09e-05 s⁻¹,369 M⁻¹ s⁻¹,,,,
"CC#CC(=O)N1CC[C@H](N2CC(c3cc(C)c4c(c3)Nc3nccc(C5CCOCC5)c3CO4)C2)C1 (single isomer, unassigned) [Compound 305]",240 nM,> 10000 nM,,0.0839 µM,2.97e-05 s⁻¹,354 M⁻¹ s⁻¹,,,,
"CC#CC(=O)N1CC(N2CC[C@@H](c3cc4c(c(C)n3)O[C@H](C)c3c(N5CCOCC5)ccnc3N4)C2)C1 (single isomer, unassigned) [Compound 308]",447 nM,> 10000 nM,,0.434 µM,1.51e-05 s⁻¹,34.8 M⁻¹ s⁻¹,,,,
"CC#CC(=O)N1CC[C@H](N2CCC(c3cc4c(c(C)n3)OCc3c(N5CCOCC5)ccnc3N4)CC2)C1 (single isomer, unassigned) [Compound 309]",129 nM,> 10000 nM,,0.277 µM,5.45e-05 s⁻¹,197 M⁻¹ s⁻¹,,,,
"CC#CC(=O)N1CC[C@@H](N2CCC(c3cc4c(c(C)n3)OCc3c(N5CCOCC5)ccnc3N4)CC2)C1 (single isomer, unassigned) [Compound 310]",75.9 nM,> 10000 nM,,0.115 µM,6.29e-05 s⁻¹,547 M⁻¹ s⁻¹,,,,
"C=CC(=O)N1CC(N2CC[C@@H](c3cc4c(c(C)n3)O[C@H](C)c3c(N5CCOCC5)ccnc3N4)C2)C1 (single isomer, unassigned) [Compound 319]",77.6 nM,> 10000 nM,,0.047 µM,6.15e-05 s⁻¹,1310 M⁻¹ s⁻¹,,,,
"C=CC(=O)N1CC[C@@H](N2CC(c3cc4c(c(C5CC5)n3)OCc3c(N5CCOCC5)ccnc3N4)C2)C1 (single isomer, unassigned) [Compound 323]",83.2 nM,7940 nM,,0.0217 µM,6.41e-05 s⁻¹,2950 M⁻¹ s⁻¹,,,,
"C=CC(=O)N1CC[C@H](N2CC(c3cc4c(c(C5CC5)n3)OCc3c(N5CCOCC5)ccnc3N4)C2)C1 (single isomer, unassigned) [Compound 326]",89.1 nM,7760 nM,939 M⁻¹ s⁻¹,,,,,,,
"C=CC(=O)N1CC[C@@H](N2CC(c3cc(C)c4c(c3)Nc3nccc(N5CCOCC5)c3CO4)C2)C1 (single isomer, unassigned) [Compound 327]",79.4 nM,~10000 nM,,0.0302 µM,4.16e-05 s⁻¹,1380 M⁻¹ s⁻¹,,,,
"CC#CC(=O)N1CC(N2CC[C@@H](c3cc4c(c(C)n3)O[C@@H](C)c3c(N5CCOCC5)ccnc3N4)C2)C1 (single isomer, unassigned) [Compound 328]",224 nM,> 10000 nM,,0.472 µM,2.77e-05 s⁻¹,58.8 M⁻¹ s⁻¹,,,,
"C=CC(=O)N1CC[C@H](N2CC(c3cc(C)c4c(c3)Nc3nccc(N5CCOCC5)c3CO4)C2)C1 (single isomer, unassigned) [Compound 329]",79.4 nM,> 10000 nM,,0.0243 µM,3.81e-05 s⁻¹,1570 M⁻¹ s⁻¹,,,,
"Cc1nc(C2CCN([C@@H]3CCN(C(=O)/C=C/C(=O)O)C3)CC2)cc2c1OCc1c(-c3cnn(C)c3)ccnc1N2 (single isomer, unassigned) [Compound 330]",7240 nM,> 10000 nM,,4.58 µM,8.82e-05 s⁻¹,19.2 M⁻¹ s⁻¹,,,,
"Cc1nc(C2CCN([C@H]3CCN(C(=O)/C=C/C(=O)O)C3)CC2)cc2c1OCc1c(-c3cnn(C)c3)ccnc1N2 (single isomer, unassigned) [Compound 332]",7590 nM,> 10000 nM,,4.85 µM,2.19e-05 s⁻¹,4.51 M⁻¹ s⁻¹,,,,
"C=CC(=O)N1CC(N2CC(c3cc4c(c(C)n3)O[C@H](C)c3c(N5CCOCC5)ccnc3N4)C2)C1 (single isomer, unassigned) [Compound 343]",,,,0.0503 µM,,,7.15,<5,5.902e-05 s⁻¹,1172.91 M⁻¹ s⁻¹
"CC#CC(=O)N1CC(N2CCC(c3cc4c(c(C)n3)O[C@@H](C)c3c(N5CCOCC5)ccnc3N4)CC2)C1 (single isomer, unassigned) [Compound 344]",3980 nM,> 10000 nM,,17.1 µM,5.4e-05 s⁻¹,3.15 M⁻¹ s⁻¹,,,,
"CC#CC(=O)N1CC(N2CCC(c3cc4c(c(C)n3)O[C@H](C)c3c(N5CCOCC5)ccnc3N4)CC2)C1 (single isomer, unassigned) [Compound 345]",87.1 nM,> 10000 nM,,0.131 µM,3.88e-05 s⁻¹,296 M⁻¹ s⁻¹,,,,
"C=CC(=O)N1CC(N2CCC(c3cc(C#N)c4c(c3)Nc3nccc(N5CCOCC5)c3[C@@H](C)O4)CC2)C1 (single isomer, unassigned) [Compound 354]",15.1 nM,4570 nM,2670 M⁻¹ s⁻¹,,,,,,,
"CC#CC(=O)N1CC(N2CC(c3cc4c(c(C)n3)O[C@H](C)c3c(N5CCOCC5)ccnc3N4)C2)C1 (single isomer, unassigned) [Compound 355]",195 nM,> 10000 nM,,0.211 µM,3.51e-05 s⁻¹,166 M⁻¹ s⁻¹,,,,
"C=CC(=O)N1CC[C@H](N2CC(c3cc(C)c4c(c3)Nc3nccc(-c5cnn(C)c5)c3CO4)C2)C1 (single isomer, unassigned) [Compound 361]",60.3 nM,~10000 nM,,0.0291 µM,5.06e-05 s⁻¹,1740 M⁻¹ s⁻¹,,,,
"C=CC(=O)N1CC[C@@H](N2CC(c3cc(C)c4c(c3)Nc3nccc(-c5cnn(C)c5)c3CO4)C2)C1 (single isomer, unassigned) [Compound 362]",58.9 nM,10000 nM,,0.0325 µM,6.59e-05 s⁻¹,2030 M⁻¹ s⁻¹,,,,
"C=CC(=O)N1CC[C@@H](N2CCC(c3cc4c(c(C)n3)OCc3c(N5CCOCC5)ccnc3N4)CC2)C1 (single isomer, unassigned) [Compound 363]",,,,0.0272 µM,,,7.52,<5,5.097e-05 s⁻¹,1874.15 M⁻¹ s⁻¹
